According to patent US12293809B2, “Workflow for generating compounds with biological activity against a specific biological target” (INSILICO MEDICINE IP LIMITED, priority 2019, dated 2025):
“Also recorded” adds a separate entry of the source.

Legend:
hDDR1 [1] = molecular target: T1, hDDR1 (Homo sapiens, UniProt Q08345); assay: KinaseProfiler radiometric biochemical kinase assay (Eurofins); design: purchased Eurofins 14-942KP10; details: for IC50: read-out: IC50, inhibition of DDR1 activity
Procedure: The experimental procedures were performed by Eurofins. The activity of the molecules against hDDR1 and hDDR2 kinases was assessed using KinaseProfiler^67. […] The enzymatic reaction processed in the presence of Mg^2+ cations and ATP at room temperature for 40 minutes and terminated by addition of phosphoric acid. […] All the compounds were prepared in 100% DMSO. […] The biological evaluation of selectivity against non-target kinases was performed in Dundee Eurofins, using Scan Max Delta Panel [10 μM ATP] KinaseProfiler^68.

hDDR1 [2] = molecular target: T1, hDDR1; assay: Rescreen in another biochemical assay (Thermo Fisher-PR6913A); details: read-out: IC50 towards DDR1 kinase, rescreen
Procedure: In the present example, six molecules were generated, selected, and synthesized and were submitted for biological testing (e.g., within 35 days). […] Since the dose-response curves for Compounds 2 and 4 seemed likely inconsistent, additional experiments were performed to confirm the activity of these molecules towards DDR1 kinase (see FIG. 4B). […] Compounds 1 and 2 were also evaluated towards DDR2 kinase.
FIGS. 4A-4B show the structures and dose-response curves for the generated molecules. The six generated compounds were tested in a dose-dependent manner against DDR1 tyrosine kinase.

[3] = test system: α-actin expression in MRC-5 cells; assay: MRC-5 fibrosis assay, TGF-β stimulated (Western blot); format: cell-based
Procedure: (§1) After 20 h growth in the reduced serum medium, the cells were treated with indicated doses of compounds for 30 minutes. Subsequently, the cells were stimulated with 10 ng/mL TGF-β (R&D Systems, 240-B-002) for 48 or 72 hours.

[4] = Microsomal stability (MLM)
Procedure: (§2) Cold acetonitrile (ACN) including 100 ng/mL Tolbutamide and 100 ng/mL Labetalol as internal standard (IS) were used for stop solution. 10 μL compound or control working solution/well was added to all plates (T0, T5, T10, T20, T30, T60, NCF60) except matrix blank. Dispense 80 μL/well microsome solution was added to every plate by Apricot, the mixture of microsome solution and compound were incubated at 37° C. for about 10 min. After pre-warming, dispense 10 μL/well NADPH regenerating system was added to every plate by Apricot to start reaction. The solution was then incubated at 37° C. 300 (μL/well) stop solution (cold in 4° C.) was added to terminate the reaction. The sampling plates were shaken for approximately 10 min. Samples were centrifuged at 4000 rpm for 20 min under 4° C. While centrifuging, 8×new 96-well plate were loaded with 300 μL HPLC water, then 100 μL supernatant was transferred and mixed for LC/MS/MS.

in vitro = assay: in vitro
Procedure: as §2

[5] = test system: α-actin (α-SMA) production in LX-2 cells; assay: LX-2 fibrosis assay, TGF-β stimulated (Western blot); format: cell-based, human; details: 0.5 to 10 μM
Procedure: Collagen α1, α-SMA, CTGF and GAPDH were traced using Western blot analysis.
After 20 h growth in the reduced serum medium, the cells were treated with indicated doses of compounds for 30 minutes.

[6] = test system: collagen α1 production in LX-2 cells; assay: as above; format: cell-based, human; details: 0.5 to 10 μM
Procedure: Collagen α1, α-SMA, CTGF and GAPDH were traced using Western blot analysis. DMSO and SB-525334 were used as negative and positive controls, respectively.
Human hepatic stellate cells LX-2 were grown in DMEM (Invitrogen, 11960) supplied with 1% MEM Non-Essential Amino Acids (Invitrogen, 11140-050), 2% fetal bovine serum (Hyclone, SV30087.03), Penicillin (100 U/mL)-streptomycin (100 μg/mL) (Millipore, TMS-AB2-C) and 2 mM L-Glutamine (Invitrogen, 25030-001). After the cells grew in 12-well plates for 24 h, the cell culture medium was changed to the same as above except using 0.4% fetal bovine serum. After 20 h growth in the reduced serum medium, the cells were treated with indicated doses of compounds for 30 minutes. Subsequently, the cells were stimulated with 4 ng/mL TGF-β (R&D Systems, 240-B-002) for 48 h. The cells were rinsed twice with DPBS before being harvested with 100 μL RIPA buffer (Sigma, R0278) supplemented with protease inhibitor cocktail (Roche, 04693132001) at 4° C. The total protein in each sample was quantified using BCA Protein Assay Kit (Pierce™, 23227) and equal amount of total protein of each sample was subject to Western blot analysis. Antibodies used were mouse anti-α-Actin (SPM332) (sc-365970), mouse anti-CTGF (E5) (sc-365970), and mouse anti-collagen al (3G3) (sc-293182), from Santa Cruz Biotechnologies; and mouse anti-GAPDH (6C5) (EMD Millipore, MAB374).

[7] = test system: CTGF expression in MRC-5 cells; assay: MRC-5 fibrosis assay, TGF-β stimulated (Western blot); format: cell-based
Procedure: as §1

T1 sequence (Q08345 19-913): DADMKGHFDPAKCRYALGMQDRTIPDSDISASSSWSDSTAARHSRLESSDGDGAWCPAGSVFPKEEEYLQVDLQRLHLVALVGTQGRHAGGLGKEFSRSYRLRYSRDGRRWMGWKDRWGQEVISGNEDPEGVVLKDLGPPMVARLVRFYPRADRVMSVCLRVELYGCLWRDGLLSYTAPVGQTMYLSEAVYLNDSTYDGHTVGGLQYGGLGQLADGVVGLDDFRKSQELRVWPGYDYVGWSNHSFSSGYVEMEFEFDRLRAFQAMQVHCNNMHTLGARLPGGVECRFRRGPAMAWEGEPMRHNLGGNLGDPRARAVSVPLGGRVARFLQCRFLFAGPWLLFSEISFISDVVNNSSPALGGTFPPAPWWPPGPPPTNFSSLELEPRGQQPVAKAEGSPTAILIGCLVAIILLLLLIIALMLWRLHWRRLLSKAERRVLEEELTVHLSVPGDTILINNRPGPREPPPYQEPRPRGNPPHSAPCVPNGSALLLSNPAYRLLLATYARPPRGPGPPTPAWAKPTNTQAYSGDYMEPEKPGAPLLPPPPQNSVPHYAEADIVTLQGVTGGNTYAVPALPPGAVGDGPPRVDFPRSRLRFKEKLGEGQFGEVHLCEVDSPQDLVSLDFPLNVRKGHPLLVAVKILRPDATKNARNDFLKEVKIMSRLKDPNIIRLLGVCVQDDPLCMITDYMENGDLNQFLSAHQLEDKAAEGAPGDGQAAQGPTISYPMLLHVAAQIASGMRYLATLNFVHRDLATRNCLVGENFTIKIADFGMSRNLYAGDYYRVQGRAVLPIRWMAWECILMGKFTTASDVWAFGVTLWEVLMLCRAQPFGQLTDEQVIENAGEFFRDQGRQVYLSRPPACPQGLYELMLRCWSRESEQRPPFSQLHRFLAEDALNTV

## Cc1ccc(CNC(=O)Cc2cccc(F)c2)cc1-c1ccc2[nH]ncc2c1 [Compound 3]
hDDR1 [1]
  IC50: 1000 nM

## Cc1cc2[nH]c(-c3cc(CN(C)C)cc(C(F)(F)F)c3)nc2cc1C#Cc1cncnc1 [Compound 4]
hDDR1 [2]
  IC50: 156 nM
hDDR1 [1]
  IC50: 278 nM

## O=C(CN1CCNC2(CCN(C(=O)c3ccc4[nH]ncc4c3)CC2)C1=O)Nc1cccc(F)c1 [Compound 5]
hDDR1 [1]
  activity against DDR1 kinase (in words): inactive

## Cc1ccc(NC(=O)CN2CCC2C(F)(F)F)cc1NC(=O)c1cnn2c1CCC2 (stereo not shown) [Compound 6]
hDDR1 [1]
  activity against DDR1 kinase (in words): inactive; also recorded: did not demonstrate any activity

## Cc1nc(Nc2ncc(C(=O)Nc3c(C)cccc3Cl)s2)cc(N2CCN(CCO)CC2)n1 [Dasatinib, dasatinib]
[3]; MRC-5
  concentration of maximum inhibition of α-actin expression: 10 µM

## O=C(O)Cc1ccccc1Nc1c(Cl)cccc1Cl [Diclofenac, diclofenac]
[4]; CD-1, mouse, microsomes, 1 h
  Remaining (*NCF = 60 min): 91.8%
  Remaining (T = 60 min): 50.2%
In vitro; Beagle, dog, microsomes
  CLint scaled: < 13.8 mL/min/kg
In vitro; Beagle, dog, microsomes, 1 h
  Remaining (*NCF = 60 min): 96.9%
  Remaining (T = 60 min): 85.7%
In vitro; SD, rat, microsomes
  CLint scaled: 106 mL/min/kg
In vitro; SD, rat, microsomes, 1 h
  Remaining (*NCF = 60 min): 89.8%
  Remaining (T = 60 min): 17.5%
In vitro; human, microsomes
  CLint scaled: 117 mL/min/kg
In vitro; human, microsomes, 1 h
  Remaining (*NCF = 60 min): 87.9%

## Cc1cccc(-c2[nH]c(C(C)(C)C)nc2-c2ccc3nccnc3c2)n1 [SB-525334, reference compound]
[5]
  effect on α-actin expression: strongly inhibited
[6]
  effect on collagen α1 expression: strongly inhibited
[3]; 0.5 μM, compared to TGF+DMSO stimulation
  reduction in α-actin expression level: 2 fold
[3]; MRC-5
  concentration of maximum inhibition of α-actin expression: 10 µM
  dose dependence of effect on α-actin expression: Unclear dose-dependent effect
[7]; 0.5 μM
  effect on CTGF expression: no effect
[7]; 10 μM
  reduction of CTGF expression: 1.5 fold

## C[C@]12CC[C@H]3[C@@H](CCC4=CC(=O)CC[C@@]43C)[C@@H]1CC[C@@H]2O [Testosterone, testosterone]
[4]; CD-1, mouse, microsomes
  CLint scaled: 1620 mL/min/kg
  half-life: 3.4 min
[4]; MLM 0.5, no co-factor
  Remaining (*NCF = 60 min): 75.4%
[4]; MLM 0.5, with NADPH
  Remaining (T = 60 min): 0.0%
In vitro; Beagle, dog, microsomes
  CLint scaled: 114 mL/min/kg
In vitro; DLM 0.5, no co-factor
  Remaining (*NCF = 60 min): 88.6%
In vitro; DLM 0.5, with NADPH
  Remaining (T = 60 min): 9.5%
In vitro; HLM 0.5, no co-factor
  Remaining (*NCF = 60 min): 82.4%
In vitro; HLM 0.5, with NADPH
  Remaining (T = 60 min): 6.9%
In vitro; HLM 0.5, with NADPH, listed as testosterone
  Remaining (T = 60 min): 6.9%
In vitro; RLM 0.5, no co-factor
  Remaining (*NCF = 60 min): 86.8%
In vitro; RLM 0.5, with NADPH
  Remaining (T = 60 min): 0.0%
In vitro; SD, rat, microsomes
  CLint scaled: 2360 mL/min/kg
In vitro; human, microsomes
  CLint scaled: 79.7 mL/min/kg
